Test results as given in patent US20100317078A1, “METHODS TO IMPROVE ALCOHOL TOLERANCE OF MICROORGANISMS” (Cornell Research Foundation Inc, priority 2007, published 2010).
Where “and” joins values, the source holds several entries; their conditions need not be identical. Equal values may be shown once. Read-outs that look alike come from different tables or passages of the source.

Assays:
[1] = system: S. cerevisiae mutant derivative MVY#2013 (opi1); conditions: for increase in μ value for opi1 over wild type: 5% ethanol; for Specific Growth Rates in 2% Glucose (μ) / Specific Growth Rates in 12% Glucose (μ): 5% Ethanol
Procedure: (§1) The method for examining ethanol tolerance by profiling yeast growth was adapted from You et al. (You et al., “Ethanol Tolerance in the Yeast Saccharomyces cerevisiae is Dependent on Cellular Oleic Acid Content,” Applied Environ Microbiology 69:1499-1503 (2003), which is hereby incorporated by reference in its entirety). Inocula of wildtype and opi1 yeast strains were prepared as previously described (see Plating Assays) except a Marathon 21K/BR bench top centrifuge (Fisher Scientific, Inc., Hampton, N.H.) was used. The cell pellet was suspended in —I media and the OD was measured by pipetting […] of the cell suspension into a clean well of a 96 well plate and reading OD in a plate reader (Synergy HT Multidetection Microplate Reader, Bio-Tek Instruments, Inc., Winooski, Vt.).
(§2) Cells were inoculated into 125-mL polycarbonate Erlenmeyer flasks with 50-mL of +I or −I containing either 2% or 12% glucose and 0 or 5% ethanol, at a final OD of 0.05. Each media type was performed in triplicate for both yeast strains. Flasks were placed in an incubator-shaker at 30° C. and 250 rpm (Gyratory Waterbath Shaker, New Brunswick Scientific, Edison, N.J.). The OD of each culture was measured over a period of at least 36 hr or until the cell density had stabilized for a period of no less than 12 hr. Triplicate OD measurements were performed for each sample and measurements were averaged.
(§3) Specific growth rate, or the growth rate over time per unit of biomass, was calculated in order to provide a quantitative assessment of the impact of experimental conditions on growth rate. Specific growth rates were estimated for both yeast strains for all of the conditions mentioned using the following first order kinetic equation:
(§4) μ=specific growth rate, (hr^−1)
(§5) This equation was fit to the data presented in FIGS. 3 through 6 using the nonlinear parameter estimation tool in KaleidaGraph.

[2] = system: S. cerevisiae wild type haploid MVY#19; conditions: WT, 5% Ethanol
Procedure: as §1, §2, §3, §4, §5

[3] = system: S. cerevisiae wild type diploid MVY#2008; conditions: for Specific Death Rates in 2% Glucose (d): WT
Procedure: (§6) The method for examining ethanol tolerance using a plating technique was adapted from Chi et al. (Chi et al., “Role of Phosphatidylinositol (PI) in Ethanol Production and Ethanol Tolerance By a High Ethanol Producing Yeast,” J Industrial Microbiology Biotechnology 22:58-63 (1999), which is hereby incorporated by reference in its entirety). Inocula of wild type and opi1 yeast strains were prepared as previously described. Cells were centrifuged at 4,500 rpm for 5 min at 4° C. (Sorvall Legend R T, Kendro Laboratory Products, Asheville, N.C.), and the supernatant was removed. Cells were washed twice with −I media, centrifuged at 4,500 rpm for 5 min, and the resulting pellet was stored at 4° C.
(§7) The cell pellets were re-suspended in inositol-free media and the OD was measured. Cells were inoculated into a 500-mL polycarbonate Erlenmeyer flask containing 110-mL of synthetic media either containing (+I) or lacking inositol (−I) at a final OD of 0.1. The cell cultures were placed in an incubator-shaker at 30° C. and 250 rpm until the OD reached 0.5.
(§8) Two volumes of cell suspension containing 1×10^8 cells—previously determined by cell counting with a hemacytometer (Bright-Line Hemacytometer, Reichert Scientific Instruments, Buffalo, N.Y.)—were removed from the flasks and placed in separate sterile 50-mL centrifuge tubes. Cells were centrifuged at 4,500 rpm for 5 min at 4° C. and the supernatant was removed. Cells were washed twice with either −I or +I media as previously described, and the resulting supernatants were discarded. Ten mL of ethanol (10, 15 or 18% (v/v)) was added to one of the 50-mL centrifuge tubes containing a washed cell pellet and this represented the “shocked culture.” As a control, 10-mL of sterile water was added to the second 50-mL tube containing a washed cell pellet. Two 25-μl aliquots of the control culture were removed and plated on YPD plates, representing time zero of the experiment. Cell suspensions were transferred from 50-mL centrifuge tubes to 25-mL sterile glass tubes. The glass tubes were placed in an incubator-shaker at 30° C. and 250 rpm.
(§9) Samples of both the shocked and control cultures were taken every hour for 4 hr. Shocked cells were diluted in ethanol (10, 15, or 18%, consistent with the concentration of the shocked culture) at dilution factor of 1:1000. Control cells were diluted in sterile water at the same dilution factor. Duplicate 25-μl aliquots were plated on YPD plates for each sample of either shocked or control cell cultures over the 4 hr time course. All plates were placed in a 30° C. incubator. Colonies were counted on all plates after 48 and 72 hr. Duplicate plate counts were averaged. Ethanol tolerance of each strain, in terms of cell viability, in either +I or −I media over a range of ethanol concentrations, was expressed as a ratio of the number of colonies counted in the shocked culture at 72 hr to the number of colonies counted in the control culture at 72 hr. Cell viability in the control culture at time-zero of the experiment was assumed to be 100%.
(§10) Ethanol tolerance of each strain was calculated, in terms of cell viability (CV), using the number of colony forming units (CFUs) in the shocked and control cultures after 72 hr of incubation using the following equation:
(§11) Cell viability in the control culture at time-zero of the experiment was assumed to be 100%. All ethanol concentrations are volume-volume percentages (v/v), while all glucose concentrations are in weight-volume percentages (w/v).
(§12) To model the data presented in FIGS. 1 and 2 and to estimate specific death rates a simple first-order kinetic model was fitted to the data using the nonlinear parameter estimation tool in KaleidaGraph (Synergy Software, Reading, Pa.):
(§13) d=specific death rate, (hr^−1)

[4] = system: S. cerevisiae mutant derivative MVY#2015 (opi1)
Procedure: as §6, §7, §8, §9, §10, §11, §12, §13

Q: Which results are given for `CCO` [Ethanol, ethanol]?
A: increase in μ value for opi1 over wild type ([1]; +I media, 2% glucose): 5%; increase in μ value for opi1 over wild type ([1]; +I media, 12% glucose): 16%; increase in μ value for opi1 over wild type ([1]; −I media, 2% glucose): 57%; increase in μ value for opi1 over wild type ([1]; −I media, 12% glucose): 33%; Specific Growth Rates in 2% Glucose (μ) ([1]; opi1, I+ media, 2% glucose): 0.118 ± 0.012 h⁻¹; Specific Growth Rates in 12% Glucose (μ) ([1]; opi1, I+ media, 12% glucose): 0.127 ± 0.007 h⁻¹; Specific Growth Rates in 2% Glucose (μ) ([1]; opi1, I− media, 2% glucose): 0.102 ± 0.011 h⁻¹; Specific Growth Rates in 12% Glucose (μ) ([1]; opi1, I− media, 12% glucose): 0.076 ± 0.010 h⁻¹; Specific Growth Rates in 2% Glucose (μ) ([2]; I+ media): 0.111 ± 0.007 h⁻¹; Specific Growth Rates in 12% Glucose (μ) ([2]; I+ media): 0.109 ± 0.010 h⁻¹; Specific Growth Rates in 2% Glucose (μ) ([2]; I− media): 0.065 ± 0.004 h⁻¹; Specific Growth Rates in 12% Glucose (μ) ([2]; I− media): 0.057 ± 0.007 h⁻¹; d of wild type cells relative to opi1 cells ([3]; 15% ethanol after growth in +I media): over 3.5 times; d of wild type cells relative to opi1 cells ([3]; 15% ethanol after growth in −I media): nearly four times; Specific Death Rates in 2% Glucose (d) ([3]; grown in I+ media, shocked in 10% Ethanol): 0.084 h⁻¹; Specific Death Rates in 2% Glucose (d) ([3]; grown in I+ media, shocked in 15% Ethanol): 2.61 h⁻¹; Specific Death Rates in 2% Glucose (d) ([3]; grown in I+ media, shocked in 15% Ethanol, listed as ethanol): 2.61 h⁻¹ and 3.14 h⁻¹; Specific Death Rates in 2% Glucose (d) ([3]; grown in I− media, shocked in 10% Ethanol): 0.049 h⁻¹; Specific Death Rates in 2% Glucose (d) ([3]; grown in I− media, shocked in 15% Ethanol): 3.14 h⁻¹; Specific Death Rates in 2% Glucose (d) ([3]; grown in I− media, shocked in 15% Ethanol, listed as ethanol): 3.14 h⁻¹ and 2.61 h⁻¹; specific death rate d ([3]; wild type, 10% ethanol, with or without inositol in growth media): less than 0.1 hr^−1; d after growth in −I media higher than after growth in +I ([3]; wild type, 15% ethanol): 20%; d of opi1 in 18% ethanol, lower than d of wild type in 15% ethanol ([4]; both grown in +I media): 38%; specific death rate d ([4]; opi1, 10% ethanol, with or without inositol in growth media): less than 0.1 hr^−1; increase of d after growth in −I media in comparison to +I media ([4]; opi1, 15% ethanol): 11%; Specific Death Rates in 2% Glucose (d) ([4]; opi1, grown in I+ media, shocked in 10% Ethanol): 0.036 h⁻¹; Specific Death Rates in 2% Glucose (d) ([4]; opi1, grown in I+ media, shocked in 15% Ethanol): 0.71 h⁻¹; Specific Death Rates in 2% Glucose (d) ([4]; opi1, grown in I+ media, shocked in 18% Ethanol): 1.61 h⁻¹; Specific Death Rates in 2% Glucose (d) ([4]; opi1, grown in I− media, shocked in 10% Ethanol): 0.006 h⁻¹; Specific Death Rates in 2% Glucose (d) ([4]; opi1, grown in I− media, shocked in 15% Ethanol): 0.79 h⁻¹
